PubChem BioAssay (NCI)
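1) Cells in 96-well plates. 2) Compound, 48 h, 5 concentrations. 3) Linear interpolation between surrounding doses. 4) Unreached endpoint = highest concentration. Definition used: TGI = concentration required for complete inhibition of growth.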

What was measured:
Assay in all cases: inhibition of tumour cell growth, NCI panel, 48 h
SK-MEL-28 melanoma = test system: SK-MEL-28 melanoma
DMS 273 small cell lung = test system: DMS 273 small cell lung
SR leukemia = test system: SR leukemia
IGROV1 ovarian = test system: IGROV1 ovarian
NCI-H522 lung = test system: NCI-H522 lung
RXF 393 renal = test system: RXF 393 renal
A498 renal = test system: A498 renal
NCI-H23 lung = test system: NCI-H23 lung
UACC-62 melanoma = test system: UACC-62 melanoma
LXFL 529 NSCLC = test system: LXFL 529 NSCLC
OVCAR-3 ovarian = test system: OVCAR-3 ovarian
HCT-15 colon = test system: HCT-15 colon
HOP-62 NSCLC = test system: HOP-62 NSCLC
TK-10 renal = test system: TK-10 renal
SK-OV-3 ovarian = test system: SK-OV-3 ovarian
RXF-631 renal = test system: RXF-631 renal
SF-268 CNS = test system: SF-268 CNS
KM20L2 colon = test system: KM20L2 colon
HCT-116 colon = test system: HCT-116 colon
SW-620 colon = test system: SW-620 colon
DLD-1 colon = test system: DLD-1 colon
OVCAR-5 ovarian = test system: OVCAR-5 ovarian
OVCAR-8 ovarian = test system: OVCAR-8 ovarian
786-0 renal = test system: 786-0 renal
KM12 colon = test system: KM12 colon
HOP-18 NSCLC = test system: HOP-18 NSCLC
RPMI-8226 leukemia = test system: RPMI-8226 leukemia
SK-MEL-2 melanoma = test system: SK-MEL-2 melanoma
MOLT-4 leukemia = test system: MOLT-4 leukemia
XF 498 CNS = test system: XF 498 CNS
COLO 205 colon = test system: COLO 205 colon
MALME-3M melanoma = test system: MALME-3M melanoma
SNB-75 CNS = test system: SNB-75 CNS
OVCAR-4 ovarian = test system: OVCAR-4 ovarian
K-562 leukemia = test system: K-562 leukemia
CAKI-1 renal = test system: CAKI-1 renal
DMS 114 small cell lung = test system: DMS 114 small cell lung
ACHN renal = test system: ACHN renal
HL-60(TB) leukemia = test system: HL-60(TB) leukemia
SNB-78 CNS = test system: SNB-78 CNS
EKVX NSCLC = test system: EKVX NSCLC
HT29 colon = test system: HT29 colon
SK-MEL-5 melanoma = test system: SK-MEL-5 melanoma
UO-31 renal = test system: UO-31 renal
SN12C renal = test system: SN12C renal
M19-MEL melanoma = test system: M19-MEL melanoma
SF-295 CNS = test system: SF-295 CNS
SF-539 CNS = test system: SF-539 CNS
NCI-H460 lung = test system: NCI-H460 lung
M14 melanoma = test system: M14 melanoma
CCRF-CEM leukemia = test system: CCRF-CEM leukemia
SNB-19 CNS = test system: SNB-19 CNS
NCI-H226 lung = test system: NCI-H226 lung
A549 NSCLC = test system: A549 NSCLC
UACC-257 melanoma = test system: UACC-257 melanoma
LOX IMVI melanoma = test system: LOX IMVI melanoma
U251 CNS = test system: U251 CNS
HOP-92 NSCLC = test system: HOP-92 NSCLC

Measured: TGI

CC1(C)COC2(OC1)C1=NS(=O)(=O)CC13CCC2C3(C)C (centres undefined)
> 100 µM: all assays above

Nc1nc(=S)c2c(ncn2CC(O)CO)[nH]1 (centres undefined)
not listed: NCI-H23 lung | MOLT-4 leukemia
> 100 µM: all other assays above
